Test results reported in publication PMC8395244, “The Oxoglutarate Binding Site and Regulatory Mechanism Are Conserved in Ammonium Transporter Inhibitors GlnKs from Methanococcales” (International Journal of Molecular Sciences, 2021).

What was measured:
MtGlnK2 = molecular target: T1, MtGlnK2 (Methanothermococcus thermolithotrophicus, UniProt Z9RMX6QOV2); experiment: X-ray crystal structure ([…] Å); format: binding; conditions: co-crystallised with 2 mM ATP, 2 mM 2OG, 2 mM MgCl2; pH 6.5; inter-subunit cleft
T1 construct: N-terminal His-tag (pET-28a(+)), tag kept (partially visible); codon-optimised gene in E. coli BL21(DE3); circa 12 kDa monomer, trimer; site between adjacent subunits

MjGlnK1^woT = molecular target: T2, MjGlnK1^woT (Methanocaldococcus jannaschii, UniProt Q60381); experiment: X-ray crystal structure ([…] Å); format: binding; conditions: co-crystallised with 2 mM ATP, 2 mM 2OG, 2 mM MgCl2; pH 8.5; inter-subunit cleft
T2 construct: gene glnK1; untagged (stop codon before XhoI in pET-24b(+)); codon-optimised gene in E. coli BL21(DE3); circa 12 kDa monomer, trimer; 2J9D/2J9E are earlier structures of this protein (2J9E C-terminally tagged)
T2 sequence (Q60381 whole entry): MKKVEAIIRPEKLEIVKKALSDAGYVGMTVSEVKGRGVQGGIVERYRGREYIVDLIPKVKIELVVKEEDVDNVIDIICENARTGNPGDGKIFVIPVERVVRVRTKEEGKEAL

Structure (SMILES) | X-ray crystal structure (1.16 Å) (MtGlnK2) | X-ray crystal structure (1.20 Å) (MjGlnK1^woT)
Nc1ncnc2c1ncn2[C@@H]1O[C@H](COP(=O)(O)OP(=O)(O)OP(=O)(O)O)[C@@H](O)[C@H]1O [ATP] | MtGlnK2 and MjGlnK1^woT structures, co-crystallized with Mg-ATP and 2OG | MtGlnK2 and MjGlnK1^woT structures, co-crystallized with Mg-ATP and 2OG
O=C(O)CCC(=O)C(=O)O [2OG] | MtGlnK2 and MjGlnK1^woT structures, co-crystallized with Mg-ATP and 2OG | MtGlnK2 and MjGlnK1^woT structures, co-crystallized with Mg-ATP and 2OG
